One data set is described as follows: Solubility in water. In kind it is physicochemical. As for the experimental part: L-Selenomethionine (97.8 mg, 0.5 mmole) was added to water (45 ml) in a 250-ml round bottom flask placed in an ice-bath. The mixture was vigorously stirred by using a magnetic stirrer and a Teflon coated stir-bar. […] Zinc chloride (68.20 mg, 0.5 mmole) was added with continued stirring. A clear solution was immediately formed. The solution was concentrated to dryness at temperature 40° C. under reduced pressure. A hygroscopic colorless solid was formed.

Data set [1] relates to glutathione peroxidase. Description: Glutathione peroxidase activity in selenium-depleted lambs fed selenium sources. To be noted: for Whole blood glutathione peroxidase activity, difference between selenium sources / Plasma glutathione peroxidase activity compared with sodium selenite / Glutathione peroxidase activities in kidney, liver, and muscle compared to sodium selenite: lambs; for Whole blood glutathione peroxidase activity, difference between selenium sources: day 14; for Plasma glutathione peroxidase activity compared with sodium selenite: day 28, 0.05 ppm Se; for Glutathione peroxidase activities in kidney, liver, and muscle compared to sodium selenite: supplemented for 56 days; for Relative bioavailability based on glutathione peroxidase activity, Plasma, day 14 / Relative bioavailability based on glutathione peroxidase activity, Plasma, day 28 / Relative bioavailability based on glutathione peroxidase activity, Heart / Relative bioavailability based on glutathione peroxidase activity, Kidney / Relative bioavailability based on glutathione peroxidase activity, Liver / Relative bioavailability based on glutathione peroxidase activity, Muscle: sheep, po; for Relative bioavailability based on glutathione peroxidase activity, Plasma, day 14: 14 days; for Relative bioavailability based on glutathione peroxidase activity, Plasma, day 28: 28 days; for Relative bioavailability based on glutathione peroxidase activity, Heart / Relative bioavailability based on glutathione peroxidase activity, Kidney / Relative bioavailability based on glutathione peroxidase activity, Liver / Relative bioavailability based on glutathione peroxidase activity, Muscle: 56 days. The format is in vivo. The text has this: (§1) […] lambs with average weight of 18.5 kg were used. […] Lambs were weaned at approximately two months of age and placed in plastic pens with plastic feeders and stainless steel waterers. For 56 days lambs were fed feedstuff low in selenium. Jugular blood samples were obtained from all lambs on days 0, 28 and 56. At the end of the 56-day depletion period, lambs were stratified by weight and randomly assigned to […]. The treatments consisted of: 1) Control, 2) sodium selenite, 3) L-selenomethionine and 4) zinc L-selenomethionine. The selenium sources were added to provide 0.05 ppm of supplemental selenium for 28 days and then the amount of selenium from each source was increased to 0.1 ppm for additional 28 days. Blood samples were collected via jugular puncture on days 0, 14, 28 and 56. Whole blood and plasma glutathione peroxidase activity in samples obtained on days 0, 14, 28, and 56. Plasma selenium was measured in samples obtained on days 0, 28, and 56. Six lambs from each treatment were slaughtered at the end of the study and samples of liver, kidney, muscle, and heart were obtained for the determination of selenium and glutathione peroxidase activities.

A short description of data set [2]: Plasma and tissue selenium concentrations in selenium-depleted lambs fed selenium sources. The format is in vivo. To be noted: for Relative bioavailability based on tissue selenium concentration, Heart / Relative bioavailability based on tissue selenium concentration, Kidney / Relative bioavailability based on tissue selenium concentration, Liver / Relative bioavailability based on tissue selenium concentration, Muscle: sheep, po, 56 days.
Text: as §1

Data set [3] deals with glutathione peroxidase. Description: Plasma glutathione peroxidase activity in broilers. In kind it is in vivo. To be noted: day 49. As for the experimental part:
(§2) One day old male and female birds were used in the study. Male and females were housed separately and randomly assigned to 6 blocks of 8 pens each (4 females and 4 males). The pens contained 50 females or 45 males. Two extra birds were added to each pen at the start of the experiment to allow for mortality and culls. On day 7 the number of birds in each per were adjusted to 50 females and 45 males. Three treatments were assigned to pens using a complete randomized block design. The treatments included: 1) negative control (no additional selenium), 2) sodium selenite, and 3) zinc L-selenomethionine. Birds were housed in concrete floor pens of an environmentally controlled facility. Environmental conditions were similar for all birds in all experimental groups. […] All feed added and removed from pens from day 0 to the end of the study was weighed and recorded. […] The feed intake for each pen was determined by subtracting the amount of feed remaining in the feeder at the end of the study period from the amount of feed weighed into the pen. Average bird weight was calculated on a pen basis. […] Blood was collected in heparinized tubes, plasma was separated and stored at −20° C. until analyzed for selenium and glutathione peroxidase. […] A 100 g sample of the right breast was collected from each bird and stored at −20° C. until analyzed for selenium.

Data set [4] in a line: Performance of grow-finish pigs fed selenium sources. The format is in vivo. To be noted: for Feed Intake / Feed/Gain / Gain: 0.3 ppm supplemental selenium. The text has this:
(§3) Sixteen pigs with an average weight of 22.9 kg were stratified by weight within sex and randomly assigned to treatments consisting of 0.3 ppm supplemental selenium from either sodium selenite or zinc L-selenomethionine hydrochloride. Pigs were housed in pens and each treatment consisted of four replicate pens each housed one gilt and one […]. Pigs were fed diets that were formulated to meet NRC requirements. Pigs were fed the growing diet for 56 days and then the finishing diet for 33 days. The average pig weight at the end of the growing and finishing phases was 69.6 and 101.2 kg, respectively. Body weights of each pig were determined initially and at the end of the growing and finishing phases. At the end of the study, pigs were slaughtered and samples of liver, muscle, heart and kidney were collected for selenium determination.

The nature of data set [5]: Tissue selenium concentrations in grow-finish pigs. The format is in vivo.
Text: as §3

A short description of data set [6]: Stability of a zinc L-selenomethionine solution on storage (HPLC). The format is physicochemical. As for the experimental part: FTIR Identification: A 100 μL of the extract was added to 100 mg of FTIR grade potassium bromide powder and mixed well. The mixer was dried in an oven at 75° C. A pellet was formed and the FTIR spectrum of the sample was recorded. […] (w, weak; m, medium; s, strong; vs, very strong). This spectrum is different than that of L-selenomethionine. Of interest is the absence of the weak to medium band at around 2118 cm^−1 characteristic of free amino acids. HPLC Determination: The concentration of zinc L-selenomethionine in the water extract was determined by HPLC. A Shimadzu instrument composed of SCL-10A-VP Controller, Dual LC-10AD-VP Pumps, SIL-10 Ai Auto sampler, and SCD-10AV-VP UV/Visible Detector set at 210 nm. A Discovery Cyano 5μ column (25 cm×4.6 mm) was used at 25° C. The mobile phase was a 0.1% Glacial acetic Acid at 1.00 mL/min. A 50 μL of the standard or sample solution was injected by the auto sampler. A set of 5 standards were prepared to contain 0.1567, 0.3134, 0.4701, 0.6268, and 0.7835 mg/ml of Zinc L-Selenomethionine. A 100 μL of the sample extract was diluted with 900 μL water and used as sample solution. Standards and sample solutions are filtered through a 2μ filter before injection. Standards and sample contained only a single component with a retention time of 3.975 min. Linear regression was used to construct a correlation graph of area under the peak vs. concentration. The concentration of zinc L-selenomethionine in the sample solution was calculated from the correlation graph and found to be 0.3898 mg/mL corresponding to 18.79% Zinc L-Selenomethionine or 5.67% Selenium in the original Premix.
About 2.0 g of a Zinc L-Selenomethionine Premix 5% Se was accurately weighed and transferred into a 100-ml volumetric flask. Water was added to volume. The flask was stoppered and its contents were mixed vigorously. The mixture was allowed to settle and a sample of the supernatant was removed carefully and filtered through a […]. The concentration of zinc L-selenomethionine in the filtrate was determined by HPLC as described in EXAMPLE 2. Analysis was conducted immediately after the solution was prepared and repeated at 30 days and 90 days after storing at an ambient temperature averaging 18° C. and 50% relative humidity.

Data set [7] can be described thus: Plasma selenium concentration in broilers. To be noted: both, chicken (broilers), in vivo, 49 days. As for the experimental part:
as §2

Data set [8] in a line: Rumen degradation after ingestion. To be noted: in vivo.

Structures can show the parent of a compound that is named as a salt.

On to `C[Se]CC[C@H](N)C(=O)O` [L-Selenomethionine, reference compound], for which the Solubility in water entry in the data set “Solubility in water” is reported as “did not completely go into solution”. For the same compound, in the data set with glutathione peroxidase [1], the “Whole blood glutathione peroxidase activity, difference between selenium sources” value is “no difference”; the “Plasma glutathione peroxidase activity compared with sodium selenite” value was “higher”; the “Glutathione peroxidase activities in kidney, liver, and muscle compared to sodium selenite” value is “higher activities”. In the data set on glutathione peroxidase [1] (in vivo), the “Relative bioavailability based on glutathione peroxidase activity, Plasma, day 14” value is 124; the “Relative bioavailability based on glutathione peroxidase activity, Plasma, day 28” value came out at 138; the “Relative bioavailability based on glutathione peroxidase activity, Heart” value was 107; the “Relative bioavailability based on glutathione peroxidase activity, Kidney” value was 100. Besides, in the data set with glutathione peroxidase [1] (in vivo), the “Relative bioavailability based on glutathione peroxidase activity, Liver” value amounted to 161 and the “Relative bioavailability based on glutathione peroxidase activity, Muscle” value is given as 186. Moreover, in data set [2] (in vivo), the “Heart and liver selenium concentrations compared with sodium selenite” value was “higher heart and liver selenium concentrations”; the “Plasma selenium compared with sodium selenite” value is “higher plasma selenium”; the “Relative bioavailability based on tissue selenium concentration, Heart” value is listed as 139; the “Relative bioavailability based on tissue selenium concentration, Kidney” value is 59. For the same compound, in data set [2] (in vivo), the “Relative bioavailability based on tissue selenium concentration, Liver” value worked out at 206 and the “Relative bioavailability based on tissue selenium concentration, Muscle” value came out at 133.
For the compound `O=[Se](O)O` [Sodium Selenite, reference compound], the “Glutathione Peroxidase Activity” value in the data set on glutathione peroxidase [3] is 14.0. In data set [4] (Finishing Phase (33 days)), the “Feed Intake” value is 2.57 kg, the Feed/Gain was found to be 2.71 and the Gain is 0.95 kg/day. Besides, in data set [4] (Growing Phase (56 days)), the “Feed Intake” value was found to be 1.74 kg, the Feed/Gain is recorded as 2.15 and the Gain was 0.81 kg/day. Moreover, in data set [4] (Total), the “Feed Intake” value is reported as 2.05 kg, the Feed/Gain came to 2.38 and the Gain is given as 0.86 kg/day. Further, in data set [2] (lambs, day 28), the “Plasma selenium concentration, difference between selenium sources” value is “no difference”. Moreover, the “Kidney selenium concentrations, sodium selenite versus zinc L-selenomethionine” value in data set [5] (pigs) is reported as “similar”.
Turning to `C[Se]CC[C@@H]1[NH][Zn][O]C1=O` [Zn L-Selenomethionine, Zinc L-Selenomethionine Hydrochloride], the “Glutathione Peroxidase Activity” value with glutathione peroxidase [3] was 14.9. In addition, the “Stability of the water solution on storage” value in [6] is listed as “stable on storage”. Further, in [6] (after 30 days at ambient temperature averaging 18° C. and 50% relative humidity), the “Concentration of zinc L-selenomethionine in the solution” value is 18.89%. Further, the “Concentration of zinc L-selenomethionine in the solution” value in data set [6] (after 90 days at ambient temperature averaging 18° C. and 50% relative humidity) turned out to be 18.78%. Further, the “Concentration of zinc L-selenomethionine in the solution” value in data set [6] (day of preparation, solution of Premix 5% Se in water) amounted to 18.95%. The “Change of concentration of zinc L-selenomethionine in the solution” value in data set [6] (thirty day storage at ambient temperature and humidity) is listed as “less than 0.5%”. In data set [7], the “Plasma Selenium Concentration” value is 0.177 ppm. Moreover, in the data set on glutathione peroxidase [1] (in vivo), the “Bioavailability compared with sodium selenite and L-selenomethionine” value is given as “more bioavailabe”; the “Relative bioavailability based on glutathione peroxidase activity, Plasma, day 14” value is on record as 145; the “Relative bioavailability based on glutathione peroxidase activity, Plasma, day 28” value stood at 149; the “Relative bioavailability based on glutathione peroxidase activity, Heart” value is reported as 126. Further, in the data set with glutathione peroxidase [1] (in vivo), the “Relative bioavailability based on glutathione peroxidase activity, Kidney” value amounted to 128; the “Relative bioavailability based on glutathione peroxidase activity, Liver” value amounted to 152; the “Relative bioavailability based on glutathione peroxidase activity, Muscle” value stood at 200. Moreover, in the data set on glutathione peroxidase [1], the “Whole blood glutathione peroxidase activity, difference between selenium sources” value is “no difference”; the “Plasma glutathione peroxidase activity compared with sodium selenite” value is listed as “higher”; the “Glutathione peroxidase activities in kidney, liver, and muscle compared to sodium selenite” value is listed as “higher activities”. Also, in data set [4], the “Gain/feed ratio compared with sodium selenite” value is “higher”. In data set [4] (Finishing Phase (33 days)), the “Feed Intake” value turned out to be 2.22 kg, the Feed/Gain was 2.31 and the Gain is listed as 0.96 kg/day. Also, in [4] (Growing Phase (56 days)), the “Feed Intake” value is listed as 1.86 kg, the Feed/Gain turned out to be 2.16 and the Gain worked out at 0.86 kg/day. Further, in data set [4] (Total), the “Feed Intake” value stood at 2.00 kg, the Feed/Gain is on record as 2.22 and the Gain is given as 0.90 kg/day. Further, in data set [4] (finishing phase), the “Feed consumed compared with sodium selenite” value is “consumed less feed”. In [8], the “Rumen degradation after ingestion” value is on record as “resistant to rumen degradation”. Besides, in data set [2] (in vivo), the “Heart and liver selenium concentrations compared with sodium selenite” value is “higher heart and liver selenium concentrations”; the “Relative bioavailability based on tissue selenium concentration, Heart” value was determined as 158; the “Relative bioavailability based on tissue selenium concentration, Kidney” value is reported as 74; the “Relative bioavailability based on tissue selenium concentration, Liver” value came out at 160. Also, the “Relative bioavailability based on tissue selenium concentration, Muscle” value in data set [2] (in vivo) amounted to 85. In addition, in data set [2] (lambs, day 56), the “Plasma selenium compared with sodium selenite” value is “higher plasma selenium”. In [5] (pig, in vivo), the “Kidney selenium concentrations, sodium selenite versus zinc L-selenomethionine” value is given as “similar”; the “Selenium concentrations in liver, muscle and heart compared with sodium selenite” value is reported as “higher selenium concentrations”.
For the compound `C[Se]C[C@H](N)C(=O)O.Cl.[Zn]` [zinc Se-methyl-L-selenocysteine complex, Zinc L-Se-Methylselenocysteine Hydrochloride], the Solubility in water entry in “Solubility in water” is “readily soluble in water”. In addition, in data set [6], the “Stability of the water solution on storage” value is on record as “stable solution”.

The values above are taken from patent publication US6911550B2, “Derivatives of seleno-amino acids with improved bioavailability and method for their preparation” (priority 2003, dated 2005).
